In article PMC6017655, “In Silico and in Vitro-Guided Identification of Inhibitors of Alkylquinolone-Dependent Quorum Sensing in Pseudomonas aeruginosa” (Molecules : A Journal of Synthetic Chemistry and Natural …, 2018):
Like-named read-outs stand apart in the source and are kept apart here.

Columns and labels:
PAO1-L = test: Bacterial growth (optical density) in reporter assay, PAO1-L; format: cell-based, Pseudomonas aeruginosa; conditions: compound vs DMSO control
Protocol: (§1) To determine the ability of the quinolines to inhibit PqsR functionality, the P. aeruginosa biosensor strains, PAO1-L and PA14, incorporating a chromosomal mCTX::PpqsA-lux transcriptional fusion, were used. These report on the activation of the pqsA promoter, regulated by PqsR [25]. PAO1-L and PA14 were chosen because they are genetically amenable and belong to the two major P. aeruginosa genomic groups. The quinolone compounds were incubated with the corresponding strain, and luminescence and optical density readings were recorded to monitor the effect of the quinolines on PqsR activity and bacterial growth, respectively. The compounds were screened at 10 µM concentration, and the activity was compared to a control of DMSO (0.1%) (Figure 3a). To be considered a hit, a threshold of at least 50% inhibition of the test compound, relative to the negative control had to be reached, without affecting bacterial growth. […] Concentration-response experiments were then carried out to determine the IC50 values (Figure 3b,c), which are summarised in Table 1.
(§2) Figure 3 Whole bacterial cell-based P. aeruginosa compound screen for both PqsR and growth inhibition (a) Activity against PA14 (green) and PAO1-L (purple) PpqsA-lux reporter strains at 10 µM test compound; (b) and (c) Dose-response curves for active compounds against PA14 (b) and PAO1-L (c); (d) and (e) growth curves for PA14 (d) and PAO1-L (e) in the presence of compound or DMSO control.

PA14 = test: Bacterial growth (optical density) in reporter assay, PA14; format: cell-based, Pseudomonas aeruginosa; conditions: compound vs DMSO control
Protocol: as §1, §2

AQ production in PA14 = test: Alkylquinolone (HHQ, PQS, HQNO) production by LC-MS/MS, PA14; format: cell-based, Pseudomonas aeruginosa; conditions: 3x IC50, 16 h, culture supernatant
Protocol: (§3) HQNO, can protect Staphylococcus aureus from vancomycin [31] and contributes to the environmental competitiveness of P. aeruginosa, through its activity as a potent inhibitor of the cytochrome bc1 complex. […] LC-MS/MS was used to quantify the major AQs HHQ, PQS and HQNO after incubation of the P. aeruginosa strains with the hit compounds, for 16 h. The assay was performed using both PAO1-L and PA14 strains which were treated with PqsR antagonists at concentrations three-fold higher than their IC50 values. The results obtained depended on the inhibitor and strain tested (Figure 5).
(§4) For each test sample, 100 µL of sterile filtered supernatant (the same preparation as for pyocyanin) was spiked with 10 µL of an internal standard solution (10 µM d4-PQS in MeOH), and diluted with water, to a total volume of 500 µL. Samples were then extracted three times with an 0.5 mL aliquot of ethyl acetate, vortex mixing the aqueous/organic mix for 2 min, then removing the organic phase once the layers had successfully partitioned. For each sample, the combined organic extracts were dried under vacuum and re-dissolved in 100 µL MeOH prior to analysis. For the LC-MS/MS analysis of supernatant extracts, the chromatography was achieved using a Shimadzu series 10AD VP LC system (Columbia, MD, USA). The LC column, maintained at 40 °C, was a Phenomenex Gemini C18 (3.0 µm, 100 × 3.0 mm) (Macclesfield, Cheshire, UK) with an appropriate guard column. Mobile phase A was 0.1% (v/v) formic acid in water containing 2 mM 2-picolinic acid, and mobile phase B 0.1% (v/v) formic acid in methanol. The flow rate throughout the chromatographic separation was 450 µL/min. After an injection of a 2 µL/sample, a binary gradient, beginning initially at 30% B, increased linearly to 99% B over 5 min. The composition remained at 99% B for 3 min, decreased to 30% B over 1 min, and stayed at this composition for 4 min, to allow for column equilibration. […] Where chromatographic peaks for HHQ, HQNO and PQS were detected, a peak area was determined, and analyte peak area/internal standard peak area calculated.

[1] = test system: PqsR (pqsA promoter, PAO1-L mCTX::PpqsA-lux); test: Whole cell biosensor reporter assay, PAO1-L mCTX::PpqsA-lux; format: cell-based, Pseudomonas aeruginosa; conditions: for IC50: Mean ± SD, n = 3; for activity at 10 µM: PAO1, read-out: PAO1-L Remaining Activity %; for PqsR inhibitory activity (in words), PAO1-L: screen at 10 µM / dose-response
Protocol: as §1
(§5) Strains PA14 mCTX::PpqsA-lux and PAO1-L mCTX::PpqsA-lux were constructed using plasmid mini-CTX::PpqsA-lux, as previously described, and the assay was performed according to a published protocol. For screening, the compounds were tested at a concentration of 10 µM, which was prepared from a 10 mM stock, in DMSO.

[2] = Hepatic microsomal stability, rat; format: in vitro ADME; conditions: liver microsomes, pH 7.4, 0.5 mg/mL protein, NADPH, 37 °C; for microsomal CLint at 1 µM: read-out: Microsomal Stability Rat Clint (intrinsic clearance); for half-life at 1 µM: read-out: Microsomal Stability Rat t1/2
Protocol: (§6) Dilutions of a 1 mM test compound DMSO stock solution were prepared in buffer (typically 0.01 M phosphate buffered saline (pH 7.4) so that the final DMSO concentration was 0.1% v/v and the final test compound concentration tested was 1 µM. Following addition of protein (0.5 mg/mL final) and NADPH, the samples were pre-incubated for 10 min prior to the start of the incubation by the addition of test compound. The test compounds were then incubated (n = 2; 1 µM final concentration) at 37 °C with tissue microsomes. Aliquots were sampled at several time points and mixed with acetonitrile (containing internal standard) to terminate the reaction and precipitate the proteins. All the samples were mixed, centrifuged and the supernatants analysed by UPLC-MS/MS. The intrinsic clearance (Clint) and half-life (t 1/2) values were determined from the slope of the parent depletion curve. Control compounds for low, moderate and high intrinsic clearance, respectively, for both human and rat microsomes, were included.

Plasma stability, rat = format: in vitro ADME; conditions: 37 °C, up to 2 h, read-out: Plasma Stability Rat t1/2
Protocol: (§7) Dilutions of a 10 mM test compound DMSO stock solution were prepared so that the final DMSO concentration was 1% v/v and the final test compound concentration tested was 1 µM. Following the addition of the test compound to plasma, the samples were pre-incubated for 10 min prior to the start of the incubation by the addition of the test compound. The test compound was incubated (n = 2; 1 µM final concentration) at 37 °C with plasma for up to 2 h. Aliquots were sampled at several time points and mixed with acetonitrile (containing internal standard) to terminate the reaction and precipitate the proteins. All the samples were mixed, centrifuged and the supernatants analysed by UPLC-MSMS. Parent disappearance and half-life (t 1/2) values were determined from the slope of the parent depletion curve. Control compounds (imidapril, enalapril, tenofovir and/or propantheline), were respectively included.

Plasma stability, human = format: in vitro ADME; conditions: 37 °C; for half-life at 1 µM: human, plasma, up to 2 h, read-out: Plasma Stability Human t 1/2
Protocol: as §7

[3] = test system: PqsR (pqsA promoter, PA14 mCTX::PpqsA-lux); test: Whole cell biosensor reporter assay, PA14 mCTX::PpqsA-lux; format: cell-based, Pseudomonas aeruginosa; conditions: for IC50: Mean ± SD, n = 3; for activity at 10 µM: PA14, read-out: PA14 Remaining Activity %; for PqsR inhibitory activity (in words), PA14: screen at 10 µM
Protocol: as §1, §5

[4] = Hepatic microsomal stability, human; format: in vitro ADME; conditions: liver microsomes, pH 7.4, 0.5 mg/mL protein, NADPH, 37 °C; for half-life at 1 µM: read-out: Microsomal Stability Human t1/2
Protocol: as §6

AQ production in PAO1-L = test: Alkylquinolone (HHQ, PQS, HQNO) production by LC-MS/MS, PAO1-L; format: cell-based, Pseudomonas aeruginosa; conditions: 3x IC50, 16 h, culture supernatant
Protocol: as §3, §4

[5] = Pseudomonas aeruginosa, PAO1, read-out: IC50 PAO1-L, PpqsA-lux reporter
[6] = read-out: IC50 PAO1-L, PpqsA-lux reporter
[7] = Pseudomonas aeruginosa, PA14, read-out: IC50 PA14, PpqsA-lux reporter

Compound	Effect on bacterial growth, PAO1-L (PAO1-L)	Effect on bacterial growth, PA14 (PA14)	Inhibition of AQ production (in words), PA14 (AQ production in PA14)	IC50 [1, 5]	activity at 10 µM ([1]; Pseudomonas aeruginosa)	IC50 [1, 6]	PqsR inhibitory activity (in words), PAO1-L [1]	microsomal CLint at 1 µM [2]	half-life at 1 µM [2]	half-life at 1 µM (Plasma stability, rat)	half-life at 1 µM (Plasma stability, human)	IC50 [3, 7]	activity at 10 µM ([3]; Pseudomonas aeruginosa)	PqsR inhibitory activity (in words), PA14 [3]	microsomal CLint at 1 µM [4]	half-life at 1 µM [4]	Inhibition of AQ production (in words), PAO1-L (AQ production in PAO1-L)	Plasma stability (in words), human plasma (Plasma stability, human; 1 µM)	IC50 ([3]; read-out: IC50 PA14, PpqsA-lux reporter)
O=CN1N=C(c2ccccc2)CC1c1cccc(Nc2ccnc3cc(C(F)(F)F)ccc23)c1 (stereo not shown) [Ii]	without interfering with bacterial growth	without interfering with bacterial growth	not observed	5 µM	15.6 ± 2.53%	5.1 ± 0.32 µM	strong PqsR inhibitory activity	54.1 µL/min/mg	25.7 min	> 240 min	69.1 min	5 ± 0.82 µM	16.6 ± 1.3%	strong PqsR inhibitory activity	80.7 µL/min/mg	17.2 min	greatest inhibition		
CC(=O)N1N=C(c2ccccc2)CC1c1cccc(Nc2ccnc3cc(C(F)(F)F)ccc23)c1 (stereo not shown) [IIi]	without interfering with bacterial growth	without interfering with bacterial growth		5 µM	26.1 ± 0.99%	5.14 ± 0.6 µM	strong PqsR inhibitory activity	65.7 µL/min/mg	21.1 min	> 240 min	157 min	5 µM	16.8 ± 1.01%	strong PqsR inhibitory activity	72.9 µL/min/mg	19 min		greatest plasma stability	4.9 ± 0.3 µM
